# Where a name gives a salt, the structure may show the parent alone.
# Target: T1, human MCH-1R (Homo sapiens, UniProt Q99705)
# T1 construct: expressed in transfected cells; host or cells: CHO-K1 (American Type Culture Collection), vector pEF/mic/cyto (Invitrogen)
# Test: MCH binding inhibition test ([125I]MCH binding to membranes of MCH-1R expressing CHO-K1 cells)
# Settings: 50% inhibition concentration to the specific [125I]MCH binding; 50 pM [125I]MCH, membranes of MCH-1R expression CHO-K1 cells, 25° C., one hour, pH 7.4
# Source text: Pharmacological Test Example 1 (MCH Binding Inhibition Test)
# A human MCH-1R encoding cDNA sequence [FEBS Letters, Vol. 398, 253 (1996); Biochimica et Biophisica Acta, Vol. 1401, 216 (1998)] was cloned to a plasmid vector pEF/mic/cyto (Invitrogen Corporation). The obtained expression vector was transfected to host cells CHO-K1 (American Type Culture Collection) using Lipofectamine Plus Reagent (Life Technology Inc.) to provide MCH-1R expression cells.
# Membrane samples prepared from the MCH-1R expression cells were incubated with each test compound and 50 pM of [^125I]MCH (NEN Co.), in an assay buffer (50 mM Tris buffer comprising 10 mM magnesium chloride, 2 mM ethylenediamine tetraacetate, 0.01% bacitracin and 0.2% bovine serum albumin; pH 7.4) at 25° C. for an hour, followed by filtration through a glass filter GF/C (Wattman Co.). After washing the glass filter with 50 mM Tris buffer (pH 7.4) comprising 10 mM magnesium chloride, 2 mM ethylenediamine tetraacetate and 0.04% Tween-20, the radioactive activity on the glass filter was measured. The non-specific binding was measured in the presence of 1 μM human MCH and 50% inhibition concentration (IC50 value) of each test compound to the specific [^125I,]MCH binding was determined.
# T1 sequence (Q99705 whole entry): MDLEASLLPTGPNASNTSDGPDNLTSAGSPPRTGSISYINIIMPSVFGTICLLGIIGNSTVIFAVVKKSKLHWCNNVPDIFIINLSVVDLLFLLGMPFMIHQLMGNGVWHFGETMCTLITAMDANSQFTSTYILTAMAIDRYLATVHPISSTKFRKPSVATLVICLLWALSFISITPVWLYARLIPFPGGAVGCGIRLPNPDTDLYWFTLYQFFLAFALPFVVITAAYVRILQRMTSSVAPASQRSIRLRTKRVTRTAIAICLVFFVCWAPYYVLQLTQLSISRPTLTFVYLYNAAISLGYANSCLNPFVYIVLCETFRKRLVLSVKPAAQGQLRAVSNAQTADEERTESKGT
row,IC50 [nM],Structure (SMILES)
1,9.6,"O=C(Nc1ccc(CN2CCOCC2)cc1)c1cc2cc(OCc3ccccc3)ccc2[nH]1 [Example 1-1, 5-(benzyloxy)-N-[4-(morpholinomethyl)phenyl]-1H-indole-2-carboxamide hydrochloride]"
2,5.6,"CCN(CC)Cc1ccc(NC(=O)c2cc3cc(OCc4ccccc4)ccc3[nH]2)cc1 [Example 1-3, 5-(benzyloxy)-N-{4-[(diethylamino)methyl]phenyl}-1H-indole-2-carboxamide]"
3,2.6,"O=C(Nc1ccc(CN2CCCC2)cc1)c1cc2cc(OCc3ccccc3)ccc2[nH]1 [Example 2-6, 5-(benzyloxy)-N-[4-(1-pyrrolidinylmethyl)phenyl]-1H-indole-2-carboxamide trifluoroacetate]"
4,4.6,"COCCN(C)Cc1ccc(NC(=O)c2cc3cc(OCc4ccccc4)ccc3[nH]2)cc1 [Example 2-10, 5-(benzyloxy)-N-(4-{[(2-methoxyethyl)(methyl)amino]methyl}phenyl)-1H-indole-2-carboxamide]"

# From patent publication US7531668B2, “2-arylcarboxamide-nitrogenous heterocycle compound” (Banyu Pharmaceutical Co., Ltd., priority 2004, dated 2009)
